In patent US11324821B2, “Triterpene saponin analogues” (ADJUVANCE TECHNOLOGIES, INC., priority 2017, dated 2022):
“And” between values parts separate entries of the source, which are not always exact repeats. Equal values may be shown once.

Experiments:
Format in all cases: in vivo, mice
GB208_1 = experiment: INFγ ELISPOT, total splenocytes, responses to GB208_1; conditions: re-stimulation GB208_1 10 μg/ml, per mouse
Procedure: (§1) The impact of synthetic TQL-1055 (Compound I-4) on CD4 and CD8 T cell responses to peptides was tested in mice as a single adjuvant and in combination with Genocea Biosciences GEN-AS2 adjuvant and sGenocea Biosciences GEN-AS3 adjuvant according to the plan in the table below. The GEN-AS2 and GEN-AS3 adjuvant are TLR agonist-based adjuvant systems. Specific peptides tested include Genocea synthetic long peptides (SLPs) GB208_1, GB208_4, GB208_8, which are tumor-specific T cell antigens identified by neo-antigen screening, however the results are expected to replicate to other types of peptides. Combinations including an adjuvant composition with the SLPs were administered to mice via s.c. scruff according to the plan below. Injections were administered to groups according to the plan in the table below. Responses in mice were measured seven (7) or fourteen (14) days after the final injection.
(§2) T cell responses were measured by the following ELISPOT analyses: • 1. Total splenocytes: • a. Combined responses to GB208_1, _4, _8; re-stimulation with overlapping peptides (OLPs) at 10 μg/ml; • b. Responses to GB208_1; re-stimulation GB208_1 at 10 μg/ml; • c. Responses to GB208_4; re-stimulation GB208_4 at 10 μg/ml; • d. Responses to GB208_8; re-stimulation GB208_8 at 10 μg/ml; • 2. CD4 enriched: combined responses to GB208_1, _4, _8; re-stimulation with overlapping peptides at 20 μg/ml; and • 3. CD8 enriched: combined responses to GB208_1, _4, _8; re-stimulation with overlapping peptides at 20 μg/ml. Specific resulting data is shown in FIGS. 2-8 and in the tables below.
(§3) The values in Tables 3a-f results are spot forming units per 800,000 cells. A value of 2000 was used if spots exceeded the upper limit of detection. All groups had n=5, except groups 1, 2, and 3, which had four mice in each group.

GB208_4 = experiment: INFγ ELISPOT, total splenocytes, responses to GB208_4; conditions: re-stimulation GB208_4 10 μg/ml, per mouse
Procedure: as §1, §2, §3

GB208_8 = experiment: INFγ ELISPOT, total splenocytes, responses to GB208_8; conditions: re-stimulation GB208_8 10 μg/ml, per mouse
Procedure: as §1, §2, §3

GB208_1, _4, _8 [1] = experiment: INFγ ELISPOT, total splenocytes, combined responses to GB208_1, _4, _8 (overlapping peptides); conditions: re-stimulation OLPs 10 μg/ml, per mouse
Procedure: as §1, §2, §3

CD4 enriched = experiment: ELISPOT, CD4 enriched cells, combined responses to GB208_1, _4, _8; conditions: re-stimulation overlapping peptides 20 μg/ml
Procedure: as §1, §2
(§4) The values in Tables 3g-h results are spot forming units per 500,000 cells. A value of 2000 was used if spots exceeded the upper limit of detection.

CD8 enriched = experiment: ELISPOT, CD8 enriched cells, combined responses to GB208_1, _4, _8; conditions: re-stimulation overlapping peptides 20 μg/ml
Procedure: as §1, §2, §4

GB208_1, _4, _8 [2] = experiment: Endpoint titer, total IgG response to GB208_1, _4, _8; conditions: FIG. 7, total IgG endpoint titer
Procedure: FIG. 7 depicts data showing enpoint titer data for total IgG response to GB208_1, _4, _8 for each group tested in Example 2.
as §1

[3] = Group 2: no antigen, 50 μg TQL-1055, days 0, 7
[4] = Group 5: 150 μg SLPs + 10 μg TQL-1055, days 0, 7
[5] = Group 6: 150 μg SLPs + 25 μg TQL-1055, days 0, 7
[6] = Group 7: 150 μg SLPs + 50 μg TQL-1055, days 0, 7
[7] = Group 8: 150 μg SLPs + 100 μg TQL-1055, days 0, 7
[8] = Group 11: 150 μg SLPs + 50 μg TQL-1055, days 0, 14

Question: Which “SLP1-specific INFγ responses in splenocytes” value (shortened to “SLP1-specific INFγ responses”) (GB208_1; [3]) does the source give for CC1O[C@@H](OC2C(O)[C@@H](NC(=O)CCCCCCCCCCC(=O)O)C(CO)O[C@H]2OC(=O)[C@]23CCC(C)(C)CC2C2=CCC4C5(C)CC[C@H](O)C(C)(C=O)C5CCC4(C)[C@]2(C)CC3O)C(O)C(O)[C@H]1O[C@@H]1OC[C@@H](O)C(O)C1O (stereo partly shown) [TQL-1055] here?
Answer: 0 spot forming units per 800,000 cells

Question: And the “SLP1-specific INFγ responses” value (GB208_1; [4])?
Answer: 0 spot forming units per 800,000 cells (2×) and 4 spot forming units per 800,000 cells and 11 spot forming units per 800,000 cells and 5 spot forming units per 800,000 cells

Question: And the “SLP1-specific INFγ responses” value (GB208_1; [5])?
Answer: 3 spot forming units per 800,000 cells and 4 spot forming units per 800,000 cells and 25 spot forming units per 800,000 cells and 12 spot forming units per 800,000 cells and 30 spot forming units per 800,000 cells

Question: And the “SLP1-specific INFγ responses” value (GB208_1; [6])?
Answer: 3 spot forming units per 800,000 cells and 13 spot forming units per 800,000 cells and 4 spot forming units per 800,000 cells and 18 spot forming units per 800,000 cells and 25 spot forming units per 800,000 cells

Question: And the “SLP1-specific INFγ responses” value (GB208_1; [7])?
Answer: 0 spot forming units per 800,000 cells and 5 spot forming units per 800,000 cells and 7 spot forming units per 800,000 cells and 29 spot forming units per 800,000 cells and 3 spot forming units per 800,000 cells

Question: What about the “SLP1-specific INFγ responses” value (GB208_1; [8]) of the same compound?
Answer: 3 spot forming units per 800,000 cells (2×) and 20 spot forming units per 800,000 cells and 94 spot forming units per 800,000 cells and 4 spot forming units per 800,000 cells

Question: And the “SLP4-specific INFγ responses in splenocytes” value (“SLP4-specific INFγ responses” below) (GB208_4; [3])?
Answer: 0 spot forming units per 800,000 cells

Question: What about the “SLP4-specific INFγ responses” value (GB208_4; [4]) of the same compound?
Answer: 31 spot forming units per 800,000 cells and 135 spot forming units per 800,000 cells and 21 spot forming units per 800,000 cells and 183 spot forming units per 800,000 cells and 72 spot forming units per 800,000 cells

Question: And the “SLP4-specific INFγ responses” value (GB208_4; [5])?
Answer: 102 spot forming units per 800,000 cells and 70 spot forming units per 800,000 cells and 431 spot forming units per 800,000 cells and 22 spot forming units per 800,000 cells and 169 spot forming units per 800,000 cells

Question: What about the “SLP4-specific INFγ responses” value (GB208_4; [6]) of the same compound?
Answer: 68 spot forming units per 800,000 cells and 23 spot forming units per 800,000 cells and 142 spot forming units per 800,000 cells and 93 spot forming units per 800,000 cells and 42 spot forming units per 800,000 cells

Question: And the “SLP4-specific INFγ responses” value (GB208_4; [7])?
Answer: 30 spot forming units per 800,000 cells and 37 spot forming units per 800,000 cells and 19 spot forming units per 800,000 cells and 76 spot forming units per 800,000 cells and 78 spot forming units per 800,000 cells

Question: And the “SLP4-specific INFγ responses” value (GB208_4; [8])?
Answer: 43 spot forming units per 800,000 cells and 96 spot forming units per 800,000 cells and 31 spot forming units per 800,000 cells and 258 spot forming units per 800,000 cells and 79 spot forming units per 800,000 cells

Question: And the “SLP8-specific INFγ responses in splenocytes” value (from here on “SLP8-specific INFγ responses”) (GB208_8; [3])?
Answer: 0 spot forming units per 800,000 cells (3×) and 2 spot forming units per 800,000 cells

Question: And the “SLP8-specific INFγ responses” value (GB208_8; [4])?
Answer: 0 spot forming units per 800,000 cells (2×) and 13 spot forming units per 800,000 cells and 15 spot forming units per 800,000 cells and 16 spot forming units per 800,000 cells

Question: And the “SLP8-specific INFγ responses” value (GB208_8; [5])?
Answer: 21 spot forming units per 800,000 cells (2×) and 5 spot forming units per 800,000 cells and 53 spot forming units per 800,000 cells and 3 spot forming units per 800,000 cells

Question: And the “SLP8-specific INFγ responses” value (GB208_8; [6])?
Answer: 29 spot forming units per 800,000 cells and 5 spot forming units per 800,000 cells and 55 spot forming units per 800,000 cells and 286 spot forming units per 800,000 cells and 20 spot forming units per 800,000 cells

Question: And the “SLP8-specific INFγ responses” value (GB208_8; [7])?
Answer: 15 spot forming units per 800,000 cells and 0 spot forming units per 800,000 cells and 2 spot forming units per 800,000 cells and 29 spot forming units per 800,000 cells and 4 spot forming units per 800,000 cells

Question: What about the “SLP8-specific INFγ responses” value (GB208_8; [8]) of the same compound?
Answer: 59 spot forming units per 800,000 cells and 33 spot forming units per 800,000 cells and 93 spot forming units per 800,000 cells and 164 spot forming units per 800,000 cells and 136 spot forming units per 800,000 cells

Question: What about the “INFγ responses in splenocytes to SLPs 1, 4, 8” value (shortened to “INFγ responses … 4, 8”) (GB208_1, _4, _8 [1]; [3]) of the same compound?
Answer: 0.5 spot forming units per 800,000 cells (2×) and 2.5 spot forming units per 800,000 cells and 2 spot forming units per 800,000 cells

Question: What about the “INFγ responses … 4, 8” value (GB208_1, _4, _8 [1]; [4]) of the same compound?
Answer: 12.5 spot forming units per 800,000 cells and 20 spot forming units per 800,000 cells and 11 spot forming units per 800,000 cells and 115 spot forming units per 800,000 cells and 53 spot forming units per 800,000 cells

Question: And the “INFγ responses … 4, 8” value (GB208_1, _4, _8 [1]; [5])?
Answer: 104.5 spot forming units per 800,000 cells and 39 spot forming units per 800,000 cells and 338 spot forming units per 800,000 cells and 12.5 spot forming units per 800,000 cells and 167.5 spot forming units per 800,000 cells

Question: And the “INFγ responses … 4, 8” value (GB208_1, _4, _8 [1]; [6])?
Answer: 56 spot forming units per 800,000 cells and 32 spot forming units per 800,000 cells and 138 spot forming units per 800,000 cells and 139 spot forming units per 800,000 cells and 59.5 spot forming units per 800,000 cells

Question: What about the “INFγ responses … 4, 8” value (GB208_1, _4, _8 [1]; [7]) of the same compound?
Answer: 42.5 spot forming units per 800,000 cells and 22 spot forming units per 800,000 cells and 17 spot forming units per 800,000 cells and 74.5 spot forming units per 800,000 cells and 73 spot forming units per 800,000 cells

Question: What about the “INFγ responses … 4, 8” value (GB208_1, _4, _8 [1]; [8]) of the same compound?
Answer: 70 spot forming units per 800,000 cells and 85 spot forming units per 800,000 cells and 32.5 spot forming units per 800,000 cells and 319.5 spot forming units per 800,000 cells and 112 spot forming units per 800,000 cells

Question: What about the “CD4 Responses, OLP pool SLP 1, 4, 8” value (CD4 enriched; [3]) of the same compound?
Answer: 0 spot forming units per 500,000 cells

Question: What about the “CD4 Responses, OLP pool SLP 1, 4, 8” value (CD4 enriched; [4]) of the same compound?
Answer: 48.5 spot forming units per 500,000 cells

Question: What about the “CD4 Responses, OLP pool SLP 1, 4, 8” value (CD4 enriched; [5]) of the same compound?
Answer: 149.5 spot forming units per 500,000 cells

Question: What about the “CD4 Responses, OLP pool SLP 1, 4, 8” value (CD4 enriched; [6]) of the same compound?
Answer: 88.5 spot forming units per 500,000 cells

Question: And the “CD4 Responses, OLP pool SLP 1, 4, 8” value (CD4 enriched; [7])?
Answer: 28.5 spot forming units per 500,000 cells

Question: And the “CD4 Responses, OLP pool SLP 1, 4, 8” value (CD4 enriched; [8])?
Answer: 79 spot forming units per 500,000 cells

Question: What about the “CD8 Responses, OLP pool SLP 1, 4, 8” value (CD8 enriched; [3]) of the same compound?
Answer: 2.5 spot forming units per 500,000 cells

Question: And the “CD8 Responses, OLP pool SLP 1, 4, 8” value (CD8 enriched; [4])?
Answer: 6.5 spot forming units per 500,000 cells

Question: And the “CD8 Responses, OLP pool SLP 1, 4, 8” value (CD8 enriched; [5])?
Answer: 5 spot forming units per 500,000 cells

Question: And the “CD8 Responses, OLP pool SLP 1, 4, 8” value (CD8 enriched; [6])?
Answer: 5.5 spot forming units per 500,000 cells

Question: What about the “CD8 Responses, OLP pool SLP 1, 4, 8” value (CD8 enriched; [7]) of the same compound?
Answer: 6.5 spot forming units per 500,000 cells

Question: What about the “CD8 Responses, OLP pool SLP 1, 4, 8” value (CD8 enriched; [8]) of the same compound?
Answer: 3.5 spot forming units per 500,000 cells

Question: And the “antibody response for antibodies specific to GB208_1, _4, and _8 compared with GEN-AS3” value (GB208_1, _4, _8 [2])?
Answer: in line with or better than GEN-AS3
